Results on two molecules are retold here after patent publication EP2924039A1, “2-Amino-1-phenyl-pyrrolo[3,2-b]quinoxaline-3-carboxamide derivates” (Universität Zürich, priority 2014, dated 2015).

One may read the IC50 as the point on the concentration scale where inhibition reaches its midpoint. Broadly, the GI50 is the concentration at which growth is held to half of that of the control. Read a high GI50 as lower sensitivity of the cells.

In one assay the target is T1, full-length human EphB4 (Homo sapiens, UniProt P54760).
T1 construct: stably transfected to overexpress full-length human EphB4; host or cells: Mouse embryonic fibroblast cells
T1 sequence (P54760 16-987): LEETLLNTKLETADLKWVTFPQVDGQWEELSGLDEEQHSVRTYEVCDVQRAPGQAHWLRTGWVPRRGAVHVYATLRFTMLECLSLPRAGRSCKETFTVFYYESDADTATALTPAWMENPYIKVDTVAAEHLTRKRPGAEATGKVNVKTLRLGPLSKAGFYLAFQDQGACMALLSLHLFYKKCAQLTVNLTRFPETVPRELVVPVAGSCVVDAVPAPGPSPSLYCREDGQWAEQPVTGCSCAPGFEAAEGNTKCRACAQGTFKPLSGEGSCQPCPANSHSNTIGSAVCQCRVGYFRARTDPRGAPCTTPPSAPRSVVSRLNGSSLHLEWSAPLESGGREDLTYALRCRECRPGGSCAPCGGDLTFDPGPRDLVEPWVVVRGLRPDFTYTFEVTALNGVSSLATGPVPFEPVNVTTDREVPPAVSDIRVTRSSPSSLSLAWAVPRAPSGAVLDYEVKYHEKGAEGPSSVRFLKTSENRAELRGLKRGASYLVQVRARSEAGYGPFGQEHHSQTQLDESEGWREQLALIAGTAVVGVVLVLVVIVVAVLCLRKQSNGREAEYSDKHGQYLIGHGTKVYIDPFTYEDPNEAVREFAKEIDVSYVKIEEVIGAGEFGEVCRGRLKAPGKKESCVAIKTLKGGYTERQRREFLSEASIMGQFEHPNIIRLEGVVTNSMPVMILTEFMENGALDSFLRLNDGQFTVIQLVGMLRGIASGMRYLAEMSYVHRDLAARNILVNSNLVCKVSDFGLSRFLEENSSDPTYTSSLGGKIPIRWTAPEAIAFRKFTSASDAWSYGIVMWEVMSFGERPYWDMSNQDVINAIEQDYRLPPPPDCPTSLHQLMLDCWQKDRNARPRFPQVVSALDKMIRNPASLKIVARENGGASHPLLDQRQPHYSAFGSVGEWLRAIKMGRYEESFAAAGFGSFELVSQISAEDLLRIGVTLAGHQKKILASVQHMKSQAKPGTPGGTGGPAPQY
The assay can be described thus: Cellular phosphorylation assay (sandwich ELISA, ProQinase). It counts as cell-based. As to conditions: mouse embryonic fibroblast cells overexpressing EphB4, stimulated with murine ephrinB2-Fc, read-out: cell IC50. As to the method: Cellular phosphorylation assays: The cellular phosphorylation experiments were performed at ProQinase GmbH. Mouse embryonic fibroblast cells, stably transfected to overexpress full-length human EphB4, were plated at 4×10^4 cells/well in DMEM supplemented with 10% FCS in 48-well culture dishes. Medium was replaced by DMEM without FCS before test compounds prediluted in 100% DMSO were added (final DMSO concentration of 1 %). After incubation for 90 min at 37 °C, cells were stimulated for 2 h at 4 °C using murine ephrinB2-Fc at a final concentration of 2 µg/ml. Quantification of EphB4 phosphorylation was assessed in a 96-well plate via sandwich ELISA using a myc capture antibody and an antiphosphotyrosine detection antibody. Table 4: Cell IC50 (µmol/l) in cells overexpressing EphB4
On the technique in general: ELISA stands for enzyme-linked immunosorbent assay.

The subject of assay [1] is A498 (kidney cancer) cells. The assay can be described thus: Cell culture and GI50 determination (resazurin), A-498. In kind it is cell-based. As to conditions: Homo sapiens, A-498, 48h incubation. As for the experimental part:
Krek (Institute of Cell Biology, ETH Zurich) were cultured in Dulbelcco's modified Eagle's medium (DMEM) supplemented with 10% (v/v) fetal bovine serum. K562 leukemia cells obtained from Dr. Silvio Hemmi (Institute of Molecular Life Sciences, UZH) were cultured using RPMI medium supplemented with 5% (v/v) fetal bovine serum. All the media was additionally supplemented with 100 units/mL of penicillin, 100µg/mL of streptomycin, 4.5 g/L glucose, 0.11g/L sodium pyrubate and 2mM glutamine and the cells were grown at 37°C in 5% CO2 atmosphere with 80% relative humidity.
The old media was removed, the cells were washed with PBS (phosphate-buffered saline) and fresh media was added. […] Control cells were treated with the same DMSO concentrations. […] After 3 hours, the fluorescence was quantified using a fluorescence microplate reader (Biotek, FLx800™) at the respective excitation and emission wavelength of 560 and 590 nm. Resazurin becomes fluorescent under mitochondrial reduction and its emission directly correlates with the metabolic stability of the cells. […] All measurements were performed at least in triplicate (see table 1).
(The colour change of resazurin is a common sign of viable cells or microbes.)

For the molecule `NC(=O)c1c(N)n(-c2cccc(C(=O)Nc3cccc(C(F)(F)F)c3)c2)c2nc3ccccc3nc12` [Compound 10c, 2-amino-1-(3-((3-(trifluoromethyl)phenyl)carbamoyl)phenyl)-1H-pyrrolo[2,3-b]quinoxaline-3-carboxamide], the IC50 at full-length human EphB4 is 0.016 µM.

On to `NC(=O)c1c(N)n(-c2cccc(NC(=O)c3cccc(C(F)(F)F)c3)c2)c2nc3ccccc3nc12` [Compound 10d, 2-amino-1-(3-(3-(trifluoromethyl)benzamido)phenyl)-1H-pyrrolo[2,3-b]quinoxaline-3-carboxamide], for which the 50% growth inhibitory concentration (GI50) in assay [1] is 13.4 µM. Further, at full-length human EphB4, the 50% inhibitory concentration (IC50) worked out at 0.02 µM.
